Tests used:
acetylated histones = assay: High-content image analysis of induction of acetylated histones in A549 cells; details: Homo sapiens, A549, 8 h, read-out: EC50 for half-maximal induction of acetylated histones (AcHistone)
Description: Cells were treated with each test HDACi compound with an automated pin transfer instrument (Janus, Perkin Elmer) and incubated for 8 hours. […] Fixation solution was aspirated and 90 μL of washing solution (0.1% Triton X-100 in PBS) was added prior to 10 minute incubation at 4° C. Washing solution was aspirated and cells were incubated at 4° C. for about 1 hour in blocking solution (0.1% Triton X-100+2% BSA in PBS). Washing solution was aspirated, and cells were incubated for about 1 hour at 4° C. in primary antibody for acetylated-tubulin (Sigma T7451) and acetylated-histone (Cell Signaling #9441L) at a 1:1000 dilution in blocking solution. Primary antibody solution was aspirated, and cells were washed three times in 90 μL of washing solution. […] Secondary antibody and nuclear staining solution was aspirated and cells were washed three times in 90 μL of washing solution. After the third wash, 50 μL of PBS was added to each well. Image acquisition was done on a high content imaging microscope (ImageXpress Micro, Molecular Devices), and image analysis (MetaXpress, Molecular Devices) was performed to obtain average acetylated-tubulin and acetylated-histone signal per cell based on treatment. Replicate experimental data from incubations with inhibitor were normalized to DMSO controls.

HDAC5 = biological target: T1, HDAC5 (Homo sapiens, UniProt Q9UQL6); assay: In vitro HDAC enzyme inhibition assay, HDAC5; assay type: biochemical
T1 construct: Recombinant, full-length HDAC protein (BPS Biosciences) was incubated with fluorophore conjugated substrate; purchased BPS Biosciences
Outline: (§1)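 Full-length recombinant enzyme + MAZ1600/MAZ1675 substrate at [S]=Km, HEPES/KCl/Tween-20/BSA/TCEP buffer pH 7.4; AMC fluorescence via deacetylase + trypsin, kinetic read q5 min; slope in linear range normalized to controls.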

HDAC3 = biological target: T2, HDAC3 (Homo sapiens, UniProt O15379); assay: In vitro HDAC enzyme inhibition assay, HDAC3; assay type: biochemical
T2 construct: Recombinant, full-length HDAC protein (BPS Biosciences) was incubated with fluorophore conjugated substrate; purchased BPS Biosciences
Outline: as §1

HDAC4 = biological target: T3, HDAC4 (Homo sapiens, UniProt P56524); assay: In vitro HDAC enzyme inhibition assay, HDAC4; assay type: biochemical
T3 construct: Recombinant, full-length HDAC protein (BPS Biosciences) was incubated with fluorophore conjugated substrate; purchased BPS Biosciences
Outline: as §1

HDAC2 = biological target: T4, HDAC2 (Homo sapiens, UniProt Q92769); assay: In vitro HDAC enzyme inhibition assay, HDAC2; assay type: biochemical
T4 construct: Recombinant, full-length HDAC protein (BPS Biosciences) was incubated with fluorophore conjugated substrate; purchased BPS Biosciences
Outline: as §1

HDAC9 = biological target: T5, HDAC9 (Homo sapiens, UniProt Q9UKV0); assay: In vitro HDAC enzyme inhibition assay, HDAC9; assay type: biochemical
T5 construct: Recombinant, full-length HDAC protein (BPS Biosciences) was incubated with fluorophore conjugated substrate; purchased BPS Biosciences
Outline: as §1

HDAC8 = biological target: T6, HDAC8 (Homo sapiens, UniProt Q9BY41); assay: In vitro HDAC enzyme inhibition assay, HDAC8; assay type: biochemical
T6 construct: Recombinant, full-length HDAC protein (BPS Biosciences) was incubated with fluorophore conjugated substrate; purchased BPS Biosciences
T6 sequence (Q9BY41 1-377): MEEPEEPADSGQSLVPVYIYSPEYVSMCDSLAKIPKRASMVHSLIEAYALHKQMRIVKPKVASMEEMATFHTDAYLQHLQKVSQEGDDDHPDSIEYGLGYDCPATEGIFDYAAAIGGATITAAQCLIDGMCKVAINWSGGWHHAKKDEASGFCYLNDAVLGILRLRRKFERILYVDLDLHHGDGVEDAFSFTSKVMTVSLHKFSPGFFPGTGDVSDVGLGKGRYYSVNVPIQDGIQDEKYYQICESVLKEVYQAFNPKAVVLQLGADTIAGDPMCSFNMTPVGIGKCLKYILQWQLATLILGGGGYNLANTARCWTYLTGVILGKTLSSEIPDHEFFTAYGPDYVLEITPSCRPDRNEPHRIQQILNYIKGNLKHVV
Outline: as §1

HDAC6 = biological target: T7, HDAC6 (Homo sapiens, UniProt Q9UBN7); assay: In vitro HDAC enzyme inhibition assay, HDAC6; assay type: biochemical; details: recombinant full-length HDAC6, substrate MAZ1600 9 μM
T7 construct: Recombinant, full-length HDAC protein (BPS Biosciences) was incubated with fluorophore conjugated substrate; purchased BPS Biosciences
T7 sequence (Q9UBN7 1-1215): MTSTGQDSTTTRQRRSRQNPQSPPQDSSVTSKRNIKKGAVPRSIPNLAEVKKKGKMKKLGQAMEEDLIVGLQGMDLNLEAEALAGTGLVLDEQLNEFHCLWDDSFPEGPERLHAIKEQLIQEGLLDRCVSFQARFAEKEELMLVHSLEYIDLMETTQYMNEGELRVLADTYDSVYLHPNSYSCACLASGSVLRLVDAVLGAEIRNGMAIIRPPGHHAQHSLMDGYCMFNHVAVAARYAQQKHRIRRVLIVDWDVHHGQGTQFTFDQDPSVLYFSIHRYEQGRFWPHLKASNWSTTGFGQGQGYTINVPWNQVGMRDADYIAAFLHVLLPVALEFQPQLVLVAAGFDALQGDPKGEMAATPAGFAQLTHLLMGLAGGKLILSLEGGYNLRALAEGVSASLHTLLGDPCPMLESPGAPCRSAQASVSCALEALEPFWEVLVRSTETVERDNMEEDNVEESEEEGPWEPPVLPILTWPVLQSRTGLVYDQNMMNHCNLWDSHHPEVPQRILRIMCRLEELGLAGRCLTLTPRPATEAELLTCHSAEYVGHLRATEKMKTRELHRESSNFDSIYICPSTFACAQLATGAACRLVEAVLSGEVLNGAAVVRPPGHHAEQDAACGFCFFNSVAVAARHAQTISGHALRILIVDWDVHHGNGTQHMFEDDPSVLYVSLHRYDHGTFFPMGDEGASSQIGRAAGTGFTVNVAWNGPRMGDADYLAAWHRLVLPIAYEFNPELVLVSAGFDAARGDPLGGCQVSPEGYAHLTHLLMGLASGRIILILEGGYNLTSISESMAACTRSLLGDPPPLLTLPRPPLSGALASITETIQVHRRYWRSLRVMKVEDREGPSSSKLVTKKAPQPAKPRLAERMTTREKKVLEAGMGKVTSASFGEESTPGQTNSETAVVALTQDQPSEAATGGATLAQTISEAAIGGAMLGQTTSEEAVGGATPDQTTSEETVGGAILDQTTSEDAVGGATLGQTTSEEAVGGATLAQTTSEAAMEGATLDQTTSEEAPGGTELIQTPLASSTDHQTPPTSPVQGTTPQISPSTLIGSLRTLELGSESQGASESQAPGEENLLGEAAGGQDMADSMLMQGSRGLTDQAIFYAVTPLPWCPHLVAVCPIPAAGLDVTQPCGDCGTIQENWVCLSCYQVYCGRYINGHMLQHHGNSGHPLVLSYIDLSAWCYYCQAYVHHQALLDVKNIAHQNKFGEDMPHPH
Outline: as §1

T1 sequence (Q9UQL6 whole entry): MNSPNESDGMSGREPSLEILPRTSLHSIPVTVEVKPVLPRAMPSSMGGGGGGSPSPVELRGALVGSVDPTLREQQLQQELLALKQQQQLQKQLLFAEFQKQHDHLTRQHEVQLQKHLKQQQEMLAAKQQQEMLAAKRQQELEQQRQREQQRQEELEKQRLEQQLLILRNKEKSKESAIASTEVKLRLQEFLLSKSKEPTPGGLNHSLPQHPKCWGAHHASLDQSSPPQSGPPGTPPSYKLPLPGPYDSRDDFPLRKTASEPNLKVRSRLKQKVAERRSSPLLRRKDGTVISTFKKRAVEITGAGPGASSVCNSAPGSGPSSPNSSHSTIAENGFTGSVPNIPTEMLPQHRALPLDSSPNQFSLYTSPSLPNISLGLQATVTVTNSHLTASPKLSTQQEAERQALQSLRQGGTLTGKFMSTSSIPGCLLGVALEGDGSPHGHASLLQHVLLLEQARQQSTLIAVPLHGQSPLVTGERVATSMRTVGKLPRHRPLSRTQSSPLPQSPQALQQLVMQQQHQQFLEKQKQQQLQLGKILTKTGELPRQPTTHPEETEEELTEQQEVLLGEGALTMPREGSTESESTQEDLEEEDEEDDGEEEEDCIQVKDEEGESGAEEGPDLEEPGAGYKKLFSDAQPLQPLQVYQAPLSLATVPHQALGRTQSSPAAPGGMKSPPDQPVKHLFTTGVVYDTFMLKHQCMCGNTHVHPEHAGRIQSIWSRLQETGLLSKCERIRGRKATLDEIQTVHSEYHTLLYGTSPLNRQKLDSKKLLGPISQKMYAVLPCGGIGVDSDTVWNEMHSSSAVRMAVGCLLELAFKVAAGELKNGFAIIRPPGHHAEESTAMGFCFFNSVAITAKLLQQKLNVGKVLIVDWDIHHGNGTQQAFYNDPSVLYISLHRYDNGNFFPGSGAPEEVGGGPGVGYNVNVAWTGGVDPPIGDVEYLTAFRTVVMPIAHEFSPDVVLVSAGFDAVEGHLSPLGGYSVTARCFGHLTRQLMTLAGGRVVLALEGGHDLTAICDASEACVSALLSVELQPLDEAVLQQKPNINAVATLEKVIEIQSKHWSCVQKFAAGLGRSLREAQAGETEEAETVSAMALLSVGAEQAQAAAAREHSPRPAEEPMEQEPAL
T5 sequence (Q9UKV0 whole entry): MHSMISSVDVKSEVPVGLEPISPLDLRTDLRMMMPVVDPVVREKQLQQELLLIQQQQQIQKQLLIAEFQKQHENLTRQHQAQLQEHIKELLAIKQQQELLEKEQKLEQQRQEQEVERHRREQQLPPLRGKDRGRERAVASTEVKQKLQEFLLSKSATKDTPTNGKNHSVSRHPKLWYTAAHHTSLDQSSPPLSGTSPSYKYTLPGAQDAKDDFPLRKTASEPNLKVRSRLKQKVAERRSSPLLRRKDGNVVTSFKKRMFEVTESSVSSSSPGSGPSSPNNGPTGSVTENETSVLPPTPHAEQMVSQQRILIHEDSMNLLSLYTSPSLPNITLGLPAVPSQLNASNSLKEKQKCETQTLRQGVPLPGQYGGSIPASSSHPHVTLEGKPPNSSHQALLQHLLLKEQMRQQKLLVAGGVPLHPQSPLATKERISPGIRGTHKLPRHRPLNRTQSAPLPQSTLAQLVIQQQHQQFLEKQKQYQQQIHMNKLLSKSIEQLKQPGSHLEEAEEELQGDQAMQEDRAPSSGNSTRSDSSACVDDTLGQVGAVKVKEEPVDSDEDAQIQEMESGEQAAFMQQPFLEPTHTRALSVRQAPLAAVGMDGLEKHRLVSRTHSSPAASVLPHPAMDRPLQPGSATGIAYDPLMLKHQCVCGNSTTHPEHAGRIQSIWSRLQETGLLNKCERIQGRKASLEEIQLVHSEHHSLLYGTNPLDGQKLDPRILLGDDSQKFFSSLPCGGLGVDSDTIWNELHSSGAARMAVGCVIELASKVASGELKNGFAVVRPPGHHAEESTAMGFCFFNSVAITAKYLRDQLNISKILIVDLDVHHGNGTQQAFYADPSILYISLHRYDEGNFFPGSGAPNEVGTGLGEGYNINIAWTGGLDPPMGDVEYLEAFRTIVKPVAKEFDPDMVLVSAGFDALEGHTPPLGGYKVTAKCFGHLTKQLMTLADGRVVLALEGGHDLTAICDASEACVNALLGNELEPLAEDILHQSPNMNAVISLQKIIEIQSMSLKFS
T3 sequence (P56524 whole entry): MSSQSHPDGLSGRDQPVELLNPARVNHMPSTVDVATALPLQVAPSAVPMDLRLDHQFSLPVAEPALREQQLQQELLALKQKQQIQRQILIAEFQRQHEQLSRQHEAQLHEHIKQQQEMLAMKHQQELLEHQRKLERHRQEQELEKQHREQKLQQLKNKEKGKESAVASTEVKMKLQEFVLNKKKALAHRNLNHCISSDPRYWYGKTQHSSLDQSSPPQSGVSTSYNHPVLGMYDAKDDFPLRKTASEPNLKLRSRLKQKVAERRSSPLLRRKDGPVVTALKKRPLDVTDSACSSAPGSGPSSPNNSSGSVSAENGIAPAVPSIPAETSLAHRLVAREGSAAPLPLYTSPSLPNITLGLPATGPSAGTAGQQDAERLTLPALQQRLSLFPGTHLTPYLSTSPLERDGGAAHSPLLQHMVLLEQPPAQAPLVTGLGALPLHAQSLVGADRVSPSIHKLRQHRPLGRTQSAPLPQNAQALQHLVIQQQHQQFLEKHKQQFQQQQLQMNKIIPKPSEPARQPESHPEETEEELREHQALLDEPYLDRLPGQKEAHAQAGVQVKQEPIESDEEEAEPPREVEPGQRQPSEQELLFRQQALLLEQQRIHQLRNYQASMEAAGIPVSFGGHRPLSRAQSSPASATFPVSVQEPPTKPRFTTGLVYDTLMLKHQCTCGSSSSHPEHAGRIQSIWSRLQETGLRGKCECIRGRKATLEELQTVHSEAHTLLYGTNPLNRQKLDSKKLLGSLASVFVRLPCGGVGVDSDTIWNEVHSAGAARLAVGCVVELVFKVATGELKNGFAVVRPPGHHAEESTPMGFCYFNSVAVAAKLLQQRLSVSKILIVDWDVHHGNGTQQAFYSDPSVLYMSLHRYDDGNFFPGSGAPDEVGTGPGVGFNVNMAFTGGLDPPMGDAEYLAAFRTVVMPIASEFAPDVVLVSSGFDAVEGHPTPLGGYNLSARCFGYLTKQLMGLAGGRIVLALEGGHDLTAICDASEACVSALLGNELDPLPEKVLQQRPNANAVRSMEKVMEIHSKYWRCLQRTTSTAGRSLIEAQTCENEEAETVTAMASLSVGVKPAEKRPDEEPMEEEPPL
T2 sequence (O15379 whole entry): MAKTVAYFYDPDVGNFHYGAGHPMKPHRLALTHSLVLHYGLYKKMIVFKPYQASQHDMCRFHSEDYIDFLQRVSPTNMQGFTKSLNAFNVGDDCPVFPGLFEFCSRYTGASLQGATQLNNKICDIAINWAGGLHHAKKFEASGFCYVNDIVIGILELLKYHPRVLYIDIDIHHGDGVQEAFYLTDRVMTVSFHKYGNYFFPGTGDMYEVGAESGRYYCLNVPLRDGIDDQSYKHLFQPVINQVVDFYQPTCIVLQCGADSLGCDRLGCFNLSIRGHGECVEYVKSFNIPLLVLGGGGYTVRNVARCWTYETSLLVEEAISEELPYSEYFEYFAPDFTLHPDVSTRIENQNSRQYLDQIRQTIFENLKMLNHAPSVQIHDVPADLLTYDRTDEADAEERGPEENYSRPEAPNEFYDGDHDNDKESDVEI
T2 sequence (Q9Y618 395-489 partner limits assumed): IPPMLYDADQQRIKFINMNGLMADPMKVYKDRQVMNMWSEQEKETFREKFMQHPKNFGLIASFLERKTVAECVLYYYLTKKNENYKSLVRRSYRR
T4 sequence (Q92769 whole entry): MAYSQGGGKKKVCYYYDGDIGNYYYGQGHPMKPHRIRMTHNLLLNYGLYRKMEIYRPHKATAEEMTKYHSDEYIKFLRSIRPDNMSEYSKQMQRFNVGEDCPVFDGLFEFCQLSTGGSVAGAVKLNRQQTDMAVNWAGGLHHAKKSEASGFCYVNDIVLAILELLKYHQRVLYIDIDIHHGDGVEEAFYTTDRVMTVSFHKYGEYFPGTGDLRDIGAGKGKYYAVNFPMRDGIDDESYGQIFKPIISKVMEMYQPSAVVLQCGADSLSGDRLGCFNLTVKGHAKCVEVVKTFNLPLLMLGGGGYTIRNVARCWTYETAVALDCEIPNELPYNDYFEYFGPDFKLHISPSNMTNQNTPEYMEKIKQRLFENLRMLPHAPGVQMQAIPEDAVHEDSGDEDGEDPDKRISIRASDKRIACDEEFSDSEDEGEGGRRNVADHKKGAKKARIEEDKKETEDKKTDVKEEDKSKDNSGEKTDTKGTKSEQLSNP

`O=C(NO)c1ccc(Cn2nnc3cc(Br)ccc32)cc1` [C5, 4-((5-bromo-1H-benzo[d][1,2,3]triazol-1-yl)methyl)-N-hydroxybenzamide] was tested, and the EC50 (acetylated histones) was 2300 nM, the “HDAC5/HDAC6 in vitro selectivity” value (HDAC5; ratio of IC50 for HDAC5 relative to that of HDAC6) was 48751 and the IC50 (HDAC5; recombinant full-length HDAC5, substrate MAZ1675 40 μM) was 1260 nM. The “selectivity toward HDAC6 compared to HDAC5 (in words)” value (HDAC5; tested in vitro) was “exceptionally high selectivity (Inhibitors with in vitro selectivity values for HDAC6 of at least 30,000 are considered to have exceptionally high selectivity toward HDAC6)”, the “HDAC3/HDAC6 in vitro selectivity” value (HDAC3; ratio of IC50 for HDAC3 relative to that of HDAC6) was 4479 and the IC50 (HDAC3; recombinant full-length HDAC3, substrate MAZ1600 9 μM) was 115 nM. For the same molecule, the “HDAC4/HDAC6 in vitro selectivity” value (HDAC4; ratio of IC50 for HDAC4 relative to that of HDAC6) was 60319, the IC50 (HDAC4; recombinant full-length HDAC4, substrate MAZ1675 10 μM) was 1560 nM and the “selectivity toward HDAC6 compared to HDAC4 (in words)” value (HDAC4; tested in vitro) was “exceptionally high selectivity (Inhibitors with in vitro selectivity values for HDAC6 of at least 30,000 are considered to have exceptionally high selectivity toward HDAC6)”. For the same molecule, the “HDAC2/HDAC6 in vitro selectivity” value (HDAC2; ratio of IC50 for HDAC2 relative to that of HDAC6) was 3277, the IC50 (HDAC2; recombinant full-length HDAC2, substrate MAZ1600 22 μM) was 84.5 nM and the “HDAC9/HDAC6 in vitro selectivity” value (HDAC9; ratio of IC50 for HDAC9 relative to that of HDAC6) was 42107. For the same molecule, the IC50 (HDAC9; recombinant full-length HDAC9, substrate MAZ1675 26 μM) was 1090 nM, the “selectivity toward HDAC6 compared to HDAC9 (in words)” value (HDAC9; tested in vitro) was “exceptionally high selectivity (Inhibitors with in vitro selectivity values for HDAC6 of at least 30,000 are considered to have exceptionally high selectivity toward HDAC6)” and the “HDAC8/HDAC6 in vitro selectivity” value (HDAC8; ratio of IC50 for HDAC8 relative to that of HDAC6) was 16483. The IC50 (HDAC8; recombinant full-length HDAC8, substrate MAZ1675 282 μM) was 425 nM and the IC50 (HDAC6) was 0.0258 nM.

Source: patent publication US20150197497A1, “SELECTIVE INHIBITORS OF HISTONE DEACETYLASE ISOFORM 6 AND METHODS THEREOF” (DANA-FARBER CANCER INSTITUTE, INC., priority 2011, published 2015)
